The test system of assay [1] is Clostridium tyrobutyricum. The assay is described as follows: Serum bottle batch fermentation of Clostridium tyrobutyricum on fructose, optical density. Format: cell-based. As to conditions: Table 17, duplicates A and B. On the procedure:
Ethyl 3-(trifluoromethyl)benzoate is evaluated in a series of batch fermentations to determine the growth response of butyrogens to the presence of this compound at varying concentrations. The batch fermentations are conducted by anoxically filling 100 mL serum bottles with 15 mL of media having the composition given in Tables 12 and 13. About 0.15 mL of a 50% w/w solution of fructose in water (final fructose concentration about 5 g/L) is provided in the bottles. Duplicate runs are conducted for each concentration.
(§1) Each bottle is inoculated with 1.5 mL of seed culture inoculum of the strict butyrogen Clostridium tyrobutyricum, which has an OD of about 0.40 (which upon a 10 times dilution provides a starting OD for the fermentation of about 0.04). The bottles are maintained at a temperature of 37° C. Two hours after inoculation of the bottles with the bacteria, the compound is added to different bottles as a solution in 50 μL of N-methylpyrrolidone in the amounts indicated in Table 15. The fermentation process is allowed to progress at 37° C. At selected intervals of time, bacterial growth is measured by reading the optical density (OD) of the fermentation liquid. Optical density is measured by anoxically removing an aliquot of fermentation liquid and adding it to a disposable cuvette. OD's ranging between 0.01 and 0.4 are measured directly, while OD's greater than 0.4 are measure after performing a 1/10 dilution with water.
In this example ethyl 4,4,4-trifluoro-3-(trifluoromethyl)crotonate and ethyl 3-trifluoromethyl-4-methoxybenzoate are evaluated by batch fermentation. The batch fermentations are conducted by anoxically filling 100 mL serum bottles with 15 mL of media having the composition given in Tables 12 and 13. About 0.15 mL of a 50% w/w solution of fructose in water (final fructose concentration about 5 g/L) is provided in the bottles. Duplicate runs are conducted for each concentration.
as §1, with “of about 0.42 (which upon” for “of about 0.40 (which upon”, “of about 0.042). The bottles” for “of about 0.04). The bottles”, “in Table 16 and 17. The fermentation” for “in Table 15. The fermentation”, “0.4 are measured after performing” for “0.4 are measure after performing”

The test system of assay [2] is Clostridium tyrobutyricum. The assay is described as follows: Butyric acid by gas chromatography in Clostridium tyrobutyricum batch fermentations. The note with it: Table 19, duplicates A and B. Format: cell-based. On the procedure: The concentration of butyric acid is determined by gas chromatography for several of the above samples at the stated points in time. The butyrate production is calculated based upon peak area calculations generated by the gas chromatograph. At 11 hours, the concentration of butyric acid for each of the controls is about 0.95 gram per liter, and the concentration of butyric acid for the samples containing 500 ppm of the inhibitor are about 0.6 gram per liter.
The concentration of butyric acid is determined by gas chromatography using the procedure set forth in Example 13. The control is reported only in Table 18.

In another assay the test system is acyl-CoA dehydrogenases. Description: In vitro acyl-CoA dehydrogenase ferrocenium assay with C. tyrobutyricum cell-free extract. Format: biochemical. The note with it: 0.5 to 10 mM compound; rate of ferrocenium reduction at 300 nm. On the procedure:
Lehman, et al., in An Acyl-Coenzyme A Dehydrogenase Assay Utilizing the Ferricenium Ion, Analytical Biochemistry 186, pages 280-284 (1990), disclose an in vitro assay screening technique for acyl-CoA dehydrogenases for determining enzyme deficiencies in children. An adaptation of this technique was explored as a potential screening method for ascertaining potential butyrogen inhibitors. An aqueous assay liquor is prepared such that each 1 milliliter sample contains 50 mM of TrisHCl buffer (pH 7.6); 0.05 mM of butyryl-CoA; 5 micromoles of FAD (flavin adenine dinucleotide) and 0.4 mM of ferrocenium. Whole cells of C. tyrobutyricum are lysed and are added to the assay liquor. […] The abbreviation mM stands for millimolar. To assure metabolic consistency among the samples a master batch of C. tyrobutyricum is prepared and harvested at the early log growth stage (approximate O.D. of between about 0.5 and 0.7). The master batch fermentation broth is centrifuged and rinsed with 50 mM TrisHCl buffer (pH 7.6), centrifuged and reconstituted with 50 mM TrisHCl buffer (pH 7.6) to be 10 times more concentrated than the original master batch. Aliquots of about 0.5 milliliter are placed into cryogenic vials (about 1.8 milliliter capacity) and frozen at −80° C. until needed. When needed, a vial is placed in an anoxic Coy chamber and allowed to thaw to room temperature. Once thawed, the cells are added to a 15 mL centrifuge tube and diluted with 0.5 mL of a 2 mg/mL solution of lysozyme (purchased from Aldrich) in 50 mM Tris-HCl (final concentration of lysozyme is about 1 mg/mL). The centrifuge tube is inverted 5 times, removed from the Coy chamber and allowed to incubate at 37° C. for 30 minutes. […] The centrifuge tube is vortexed in the Coy chamber for about 30 seconds, removed from the chamber and centrifuged for 15 minutes at 4000 rpm and 4° C. The tube is returned to the chamber and the cell-free extract (supernatant) is used to prepare the above described samples. The samples are analyzed at various times by absorbance spectroscopy at 300 nm using a Thermo Scientific Evolution 300 UV/Vis spectrophotometer with a 7-cuvette carousel and Starna quartz cuvettes with a septum cap to determine the amount of reduction of ferrocenium. The sample is at laboratory temperature and is maintained under anaerobic conditions. Typically, the absorbance is measured over a period of about 10 to 20 minutes which is sufficient time for the absorbance to stop changing. A linear slope of the rate of change in absorbance during the period that the absorbance is changing is determined using Microsoft Excel® 2010 linear regression to generate a straight line from the data points. The more gradual the slope, the better inhibition because the enzyme is slower at reducing the ferrocenium in the assay sample. A dose-response curve is then determined for each compound by plotting the linear slope against the respective compound concentration. A linear slope is then determined for each compound using Microsoft Excel® 2010 linear regression to generate a straight line from the data points. The steeper the dose-response slope, the better the inhibition because the increased concentration of the compound causes more of a difference in enzyme activity. The dose-response slope generally has a broad standard of deviation due to experimental imprecision and slope determinations.

In the next assay the test system is C. autoethanogenum. Description: Balch tube batch growth of homoacetogen C. autoethanogenum on fructose, optical density. Format: cell-based. As to conditions: added 21 h after inoculation. On the procedure: These compounds were first tested to determine their effect on a known homoacetogen. Each compound was tested in a series of batch experiments to determine the growth response of a homoacetogen to the presence of the compound at varying concentrations. The batch experiments were all conducted by anoxically filling a Balch tube with 5 ml of a fermentation medium having the composition given in Tables 2 and 3. To expedite results, these batch experiments used fructose as the growth nutrient source for bacteria. Thus, the media included a 5 g/L of fructose.
Each tube was inoculated with 0.5 ml of the same strain of C. autoethanogenum bacteria seed culture inoculum. The tubes were maintained at a temperature of 37° C. Twenty one hours after the inoculation of the tube with the bacteria, the different crotonate derivatives from Table 1 were added to different tubes in the amounts indicated in Table 4 This was at a time of early to mid-log phase growth for the bacteria. Each fermentation of the bacteria in the media at the different concentration of crotonate derivatives were allowed to progress and were monitored to determine the bacteria growth at selected intervals of time varying from approximately 20 hours to 190 hours. Growth at the intervals was measured by reading the optical density (OD) of the fermentation liquid. Optical density was measured using a Spectronic Spec 20 (Thermo Spectronic) at a wavelength of 600 nm. The OD of the Balch tube culture was measured directly in the tube using absorbance mode on the Spec 20 machine. The machine was set to zero absorbance by first measuring and adjusting the setting to zero absorbance using media only as a blank. This process was repeated at each indicated time point throughout the experiment. The ability of a tube fermentation at a particular concentration of crotonate derivative to reach a predetermined optical density was recorded in Table 4. Table 4 indicates the presence of bacterial growth to an OD of approximately 2 or above with a “+”, and to an optical density in a range of 0.5 to 1.5 as a “+/−”, and indicates the failure of bacterial growth to reach an optical density of approximately 0.5 as a “−”.

Assay [3] concerns Clostridium tyrobutyricum. Description: Balch tube batch growth of strict butyrogen Clostridium tyrobutyricum on fructose, optical density. Format: cell-based. The note with it: added 21 h after inoculation. On the procedure:
Similar experiments were conducted to make a preliminary determination as to which of the crotonate and crotonate-like compounds would act as butyrogen retardants. For this purpose the selected compounds were tested again in a series of batch experiments to determine the growth response of butyrogens to the presence of the compound at varying concentrations. The batch experiments were all conducted by anoxically filling a 20 ml Balch tube with 5 ml of a fermentation medium having the composition given in Tables 2 and 3. The media included 0.5 v/v final concentration of a fructose substrate. For each of the crotonate concentrations tested, duplicate test tubes were prepared.
Each tube was inoculated with 0.5 ml seed culture inoculum of the strict butyrogen Clostridium tyrobutyricum. The tubes were maintained at a temperature of 37° C. Twenty one hours after the inoculation of the tube with the bacteria, the different compounds from Table 1 were added to different tubes in the amounts indicated in Table 6. This was at a time of early to mid-log phase growth for the bacteria. Each fermentation of the bacteria in the media at the different concentration of crotonate derivatives were allowed to progress and were monitored to determine the bacteria growth at selected intervals of time varying from approximately 20 hours to 54 hours. Growth at the intervals was measured by reading the optical density (OD) of the fermentation liquid. Optical density was measured as described in Example 1. The ability of a tube fermentation at a particular concentration of crotonate derivative to reach a predetermined optical density was recorded in Table 6. Table 6 indicates the presence of bacterial growth to an OD of approximately 1.8 or above with a “+”, and to an optical density in a range of 0.7 to 1.5 as a “+/−”, and indicates the failure of bacterial growth to reach an optical density of approximately 0.7 as a “−”.

“And” between values parts separate entries of the source, which are not always exact repeats. Identical values can stand only once.

For `CCOC(=O)c1ccc(OC)c(C(F)(F)F)c1` [ethyl 3-trifluoromethyl-4-methoxybenzoate], the “O.D. Response” value is 0.42 in assay [1] (5 mM, 0 Hours, added 2 h after inoculation); 0.11 and 0.12 in assay [1] (5 mM, 2 Hours, added 2 h after inoculation); 0.20 and 0.18 in assay [1] (5 mM, 4.5 Hours); 0.16 and 0.10 in assay [1] (5 mM, 6 Hours); 1.23 and 0.91 in assay [1] (5 mM, 24 Hours); 0.42 in assay [1] (10 mM, 0 Hours, added 2 h after inoculation). Also, the “O.D. Response” value in assay [1] (10 mM, 2 Hours, added 2 h after inoculation) is 0.11; in assay [1] (10 mM, 4.5 Hours), 0.24 and 0.23; in assay [1] (10 mM, 6 Hours) it was 0.12 and 0.13; in assay [1] (10 mM, 24 Hours), 1.22 and 1.19. In addition, the “Butyrate Production” value was 0.19 grams per liter and 0.10 grams per liter in assay [2] (5 mM, 6 Hours); 0.03 grams per liter in assay [2] (10 mM, 2 Hours); 0.69 grams per liter and 0.67 grams per liter in assay [2] (10 mM, 4.5 Hours); 0.11 grams per liter and 0.10 grams per liter in assay [2] (10 mM, 6 Hours); 0.19 grams per liter and 0.17 grams per liter in assay [2] (10 mM, 24 Hours).
Consider `C/C=C/C(=O)OC(C)(C)C` [C, Tert-butyl crotonate, reference compound], for which the “Dose-Response Slope” value with acyl-CoA dehydrogenases came out at 6. Besides, the “Optical density valuation of C. autoethanogenum” value was “+ (bacterial growth to an OD of approximately 2 or above)” with C. autoethanogenum (10 ppm(m)); “+ (bacterial growth to an OD of approximately 2 or above)” with C. autoethanogenum (100 ppm(m)); “+ (bacterial growth to an OD of approximately 2 or above)” in the assay on C. autoethanogenum (500 ppm(m)); “+ (bacterial growth to an OD of approximately 2 or above)” in the assay on C. autoethanogenum (1000 ppm(m)); “+ (bacterial growth to an OD of approximately 2 or above)” in the assay on C. autoethanogenum (5000 ppm(m)); “− (failure of bacterial growth to reach an optical density of approximately 0.5)” in the assay on C. autoethanogenum (10000 ppm(m)). Besides, the “Optical density valuation of C. tyrobutyricum” value in assay [3] (100 ppm(m)), in assay [3] (500 ppm(m)) and in assay [3] (1000 ppm(m)) was “+ (bacterial growth to an OD of approximately 1.8 or above)” throughout.

The values above are taken from patent US20130071897A1, “METHOD FOR CONTROLLING UNDESIRABLE BYPRODUCTS FORMATION CAUSED BY CONTAMINATING ORGANISMS IN THE PRODUCTION OF ETHANOL FROM SYNGAS” (COSKATA, INC., priority 2011, published 2013).
